Results reported in article PMC8533206 (Antioxidants, 2021).
“Also recorded” adds a separate entry of the source.

Columns and labels:
[1] = molecular target: T1, Human recombinant MAO-A (hMAO-A) (Homo sapiens, UniProt P21397); experiment: MAO-A inhibition assay (Amplex Red fluorescence, p-tyramine substrate); format: biochemical
T1 construct: purchased Sigma-Aldrich; host or cells: insect cells
T1 sequence (P21397 1-527): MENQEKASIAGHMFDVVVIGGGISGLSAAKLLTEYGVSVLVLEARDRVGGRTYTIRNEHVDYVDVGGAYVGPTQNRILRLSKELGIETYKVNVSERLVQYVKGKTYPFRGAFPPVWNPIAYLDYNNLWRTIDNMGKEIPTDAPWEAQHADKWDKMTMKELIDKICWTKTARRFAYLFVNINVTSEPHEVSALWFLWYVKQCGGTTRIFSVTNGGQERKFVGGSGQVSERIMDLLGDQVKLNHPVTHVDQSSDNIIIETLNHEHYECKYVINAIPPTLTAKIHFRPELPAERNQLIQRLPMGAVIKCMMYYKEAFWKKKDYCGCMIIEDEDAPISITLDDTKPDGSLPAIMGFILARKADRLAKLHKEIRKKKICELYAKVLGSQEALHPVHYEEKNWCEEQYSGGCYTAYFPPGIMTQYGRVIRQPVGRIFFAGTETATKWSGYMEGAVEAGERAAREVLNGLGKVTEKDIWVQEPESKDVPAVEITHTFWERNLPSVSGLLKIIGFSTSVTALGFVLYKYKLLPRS
Method: The biological evaluation of the tested compounds over both MAO-A and MAO-B was performed following the previously reported method. The MAO activity was measured in relative fluorescence units (RFU) evoked by peroxidase-catalyzed oxidation of Amplex Red® to resorufin, in which H2O2 generated by MAO reaction was used as the electron donor. Human recombinant MAO-A (hMAO-A) and MAO-B (hMAO-B) enzymes expressed in insect cells were obtained from Sigma-Aldrich. The 2 μL of test compound in DMSO ([…]) was treated with 98 μL of hMAO enzyme solution in 50 mM sodium phosphate buffer (pH 7.4, final protein amounts: ~1.25 μg protein/well for MAO-A and ~2.5 μg protein/well for MAO-B) on 96-well black plate and incubated for 15 min at 37 °C. Then, 100 μL of reaction working solution which is a mixed solution of 400 μM Amplex Red® (Cayman, final concentration: 200 μM), 2 U/mL horseradish peroxidase (Sigma-Aldrich, final concentration: 1 U/mL) and 2 mM substrate (p-tyramine for MAO-A, benzylamine for MAO-B, Sigma-Aldrich, final concentration: 1 mM) in 50 mM sodium phosphate buffer (pH 7.4) were added and incubated for 20 min at 37 °C in the dark. The fluorescent intensity was quantified using a microplate reader (SpectraMax®i3, Molecular Device) with an excitation at 545 nm and an emission at 590 nm. The 50% inhibitory concentrations (IC50) of compounds were determined as the mean ± S.E.M. in triplicate from the dose-response inhibition curves using SigmaPlot® 13.0 (Systat Software Inc., San Jose, CA, USA).

[2] = system: PC12 cells; experiment: Cytotoxicity over PC12 cells (MTT assay); format: cell-based; details: 24 h
Method: PC12 cells were routinely maintained in RPMI-1640 media containing 100 IU/mL penicillin, and 100 μg/mL streptomycin supplemented by 10% heat-inactivated HS, 5% FBS in a humidified incubator containing 5% CO2 and 95% air at 37 °C [25]. The cell culture media was changed every two days. To perform experiments, cells were plated on poly-D-lysine/laminin-coated 24-well plates at a density of 3 × 10^5 cells/well and incubated for at least 24 h to allow cell adhesion.
To examine the effects of the test compounds on cell survival, cells were incubated in low serum media (1% HS, 1% FBS, 100 IU/mL penicillin, and 100 μg/mL streptomycin) with test compounds at the concentrations of 10 and 30 μM or an equivalent volume of vehicle control (DMSO at the final concentration of 0.3%) for 24 h. The media containing test compounds was sonicated at room temperature for 30 min to assure adequate dissolution in the media. To assess the protective effects of the test compounds on 6-OHDA- or rotenone-induced cell death in PC12 cells, cells were pre-treated with the compounds or rasagiline for 4 h. The pre-treated cells were then exposed to 6-OHDA (50 μM) or rotenone (1 μM) for 24 h.
After the desired treatment, cell viability was determined by MTT assay as described previously, with slight modification. Briefly, MTT was added to the cells at the final concentration of 0.5 mg/mL, followed by incubation for 3 h at 37 °C. The supernatants were carefully removed, and then 300 μL of DMSO was added to each well to dissolve formazan precipitate. The absorbance of the dissolved solution was measured at 550 nm using a microplate reader (SpectraMax M2e, Molecular Devices, Sunnyvale, CA, USA). The cell viability was presented as the percentage of the absorbance measured in the vehicle-treated control cells. […] Inhibition (%) = 100 × (Abssample − Abs6-OHDA or rotenone)/(Abscontrol − Abs6-OHDA or rotenone)

[3] = system: PC12 cells; experiment: 6-OHDA-induced ROS generation in PC12 cells (H2-DCFDA); format: cell-based, rat; details: 10 μM compound, 6-OHDA 50 μM 20 h
Method: (§1) The involvement of oxidative stress in the observed reduction in cell viability was investigated using the fluorescent dye H2-DCFDA as described previously. Briefly, cells were loaded with 10 μM H2-DCFDA for 30 min at 37 °C. Subsequently, cells were exposed for 4 h to 10 μM of test compounds followed by the addition of 50 μM 6-OHDA or 1 μM rotenone for 20 h, and fluorescence was measured spectrophotometrically at 488/520 nm in a microplate reader (SpectraMax M2e). N-acetylcysteine (NAC, 5 mM) was included as a […] control for oxidative stress.

[4] = system: PC12 cells; experiment: Rotenone-induced ROS generation in PC12 cells (H2-DCFDA); format: cell-based, rat; details: 10 μM compound, rotenone 1 μM 20 h
Method: as §1

[5] = DPPH radical scavenging activity (cell-free); details: for DPPH radical scavenging activity (in words): cell-free, DPPH 150 µM
Method: DPPH radical scavenging activities of test compounds were assessed as previously described. Briefly, the reaction mixture containing desired concentrations of test compounds and DPPH radical solution (150 µM) prepared in 95% methanol was incubated for 30 min at 37 °C. The absorbance of the mixture was measured at 520 nm in a microplate reader (SpectraMax M2e). The radical scavenging activity was calculated using the following equation:DPPH radical scavenging activity (%) = 100 × (Abscontrol − Abssample)/Abscontrol where Abscontrol and Abssample represent the absorbances in the absence and in the presence of test compounds, respectively.

O=C(Nc1ccc2c(c1)OCO2)c1ccc2[nH]ccc2c1 [Compound 8e, N-(benzo[d][1,3]dioxol-5-yl)-1H-indole-5-carboxamide]
IC50 [1]: > 100 µM
inhibition at 10 µM [1]: < 10%
inhibition at 30 µM [1]: < 10%
inhibition at 100 µM [1]: < 10%
Cytotoxic effect on PC12 cell viability ([2]; 10 μM): did not show any cytotoxic effects
Effect on 6-OHDA-induced ROS generation [3]: significantly decreased
Effect on rotenone-induced intracellular ROS production [4]: attenuated
DPPH radical scavenging activity (in words) [5]: mild DPPH radical scavenging activities

O=C(Nc1ccc(I)cc1)c1ccc2[nH]ccc2c1 [Compound 8a, N-(4-iodophenyl)-1H-indole-5-carboxamide]
IC50 [1]: > 100 µM
inhibition at 10 µM [1]: 17.2%
inhibition at 30 µM [1]: 21.7%
inhibition at 100 µM [1]: 23.5%
Cytotoxic effect on PC12 cell viability ([2]; 10 μM): did not show any cytotoxic effects
Effect on 6-OHDA-induced ROS generation [3]: not effective
Effect on rotenone-induced intracellular ROS production [4]: not effective

COC(=O)c1ccc2c(ccn2C(=O)c2ccc(Cl)c(Cl)c2)c1 [Compound 7b, Methyl 1-(3,4-dichlorobenzoyl)-1H-indole-5-carboxylate]
IC50 [1]: > 100 µM
inhibition at 10 µM [1]: < 10%
inhibition at 30 µM [1]: < 10%
inhibition at 100 µM [1]: < 10%
Cytotoxic effect on PC12 cell viability ([2]; 10 μM): did not show any cytotoxic effects
Effect on 6-OHDA-induced ROS generation [3]: significantly decreased
Effect on rotenone-induced intracellular ROS production [4]: attenuated
DPPH radical scavenging activity (in words) [5]: mild DPPH radical scavenging activities

O=C(Nc1ccc(Br)cc1)c1ccc2[nH]ccc2c1 [Compound 8b, N-(4-bromophenyl)-1H-indole-5-carboxamide]
IC50 [1]: > 100 µM
inhibition at 10 µM [1]: 15.1%
inhibition at 30 µM [1]: 27.9%
inhibition at 100 µM [1]: 30.1%
Cytotoxic effect on PC12 cell viability ([2]; 10 μM): did not show any cytotoxic effects
Cytotoxic effect on PC12 cell viability ([2]; 30 μM): significant reduction in cell viability
Effect on 6-OHDA-induced ROS generation [3]: significantly decreased
Effect on rotenone-induced intracellular ROS production [4]: attenuated
Maximal DPPH radical scavenging effect ([5]; 30 and 100 µM): approximately 10%
DPPH radical scavenging activity (in words) [5]: mild DPPH radical scavenging activity; also recorded: mild DPPH radical scavenging activities
